Source: patent US11291674B2 (CALITHERA BIOSCIENCES, INC., priority 2016, dated 2022)

Legend:
[1] = tested on: LLC tumors; test: LLC tumors in mice with conditional Arg1 deletion in the myeloid lineage; format: in vivo, mouse; details: 100 mg/kg every 12 h for 14 days
Description: Conditional Arg1 deleted mice. Arg1 floxed mice were crossed to the Tie2-Cre deleter strain (The Jackson Laboratory) as previously described. Experimental mice were generated from crossing Arg1^Flox/Flox; Tie2-Cre^+ males with Arg1^Flox/Flox; Tie2-Cre^+ females, with Cre negative littermates serving as wild-type controls. Mice were housed and used in accordance with protocols approved by the Institutional Animal Care and Use Committee at St. Jude Children's Research Hospital. LLC cells (1×10^6 per mouse) were injected s.c. in the flank region. […] Mice were euthanized, and tumors excised and weights recorded. Myeloid deletion of Arg1 was confirmed via western blotting of IL-4-stimulated bone marrow-derived macrophages for all animals.

[2] = tested on: CT26 cell line; test: Cytotoxicity assay (CellTiterGlo), CT26; format: cell-based, murine; details: 1 mM arginase inhibitor, 72 h
Procedure: (§1) Cytotoxicity assays. […] Cytotoxicity was assayed by the addition of CellTiterGlo reagent according to the manufacturer's instructions (Promega, Madison, Wis.) followed by […] quantification on a Molecular Devices plate reader (Sunnyvale, Calif.).

[3] = biological target: T1, Recombinant bovine endothelial NOS (Bos taurus, UniProt P29473); test: NOS activity assay, endothelial NOS; format: biochemical; details: 50 μM arginase inhibitor
T1 construct: Eurofins/Cerep Panlabs (contract laboratory that ran the assay)
Description: (§2) Nitric oxide (NO) synthase (NOS) activity assays.
(§3) Standard deviations are indicated in parentheses. […] N/A=not applicable.

[4] = biological target: T2, Rat cerebellar neuronal NOS (Rattus norvegicus, UniProt P29476); test: NOS activity assay, neuronal NOS; format: biochemical; details: 50 μM arginase inhibitor
T2 construct: native rat cerebellar neuronal NOS; tissue Eurofins/Cerep Panlabs (contract laboratory that ran the assay); host or cells: rat cerebellum
Description: as §2, §3

[5] = tested on: B16 cell line; test: Cytotoxicity assay (CellTiterGlo), B16; format: cell-based, murine; details: 1 mM arginase inhibitor, 72 h
Procedure: as §1

[6] = biological target: T3, Recombinant murine inducible NOS (Mus musculus, UniProt P29477); test: NOS activity assay, inducible NOS; format: biochemical; details: 50 μM arginase inhibitor
T3 construct: Eurofins/Cerep Panlabs (contract laboratory that ran the assay)
Description: as §2, §3

[7] = tested on: CT26 lung metastases; test: Adoptive NK cell transfer study, CT26 lung metastasis model; format: in vivo, mouse; details: compared to control groups, 14 days
Procedure: Adoptive NK cell transfer studies. Balb/c mice were inoculated i.v. with 1×10^5 CT26 cells. 1×10^6NK cells (isolated from Balb/c spleens the day before injection and incubated with recombinant IL-2 and IL-15 for 18 h) were transferred on the same day as tumor inoculation. The injected NK cells were profiled by flow cytometry to be CD25^+ and 80-90% pure with less than 0.4% T cells.

[8] = tested on: G-MDSC-mediated suppression of T cell proliferation; test: T cell proliferation in media conditioned by G-MDSC of a lung cancer patient; format: cell-based, human
Procedure: T cell/myeloid cell co-culture assays. […] Granulocytes were incubated for 48 h at 37° C., during which time they spontaneously activate as determined by surface expression of CD66b and scatter properties. T cells isolated from the same donor using a pan-T cell isolation kit (Stemcell Technologies) were loaded with CFSE and plated with immobilized anti-CD3 and soluble anti-CD28 in the presence of the aged granulocytes. The cells were co-cultured at several ratios of granulocytes to T cells as indicated or at a fixed ratio of 4 T cells to 1 granulocyte. Co-cultures were incubated for 3-4 days, at which time media were analyzed for L-arginine and L-ornithine by mass spectrometry and T cell proliferation was determined by flow cytometry. Granulocytic MDSC (G-MDSC) or granulocytes from cancer patients were isolated from whole blood purchased from Conversant Biologics. G-MDSCs were purified from the PBMC layer of a Ficoll gradient by positive selection for CD66b^+ cells. Granulocytes were purified from the RBC layer of a Ficoll gradient using Hetasep (Stemcell Technologies). […] Cytokines were quantified in the media from T cell co-culture assays using the Cytometric Bead Array kit according to the manufacturer's instructions (BD Biosciences).

[9] = tested on: B16 tumors; test: B16 syngeneic tumor model; format: in vivo
Description: Murine tumor studies. Female wild-type C57BL/6 and Balb/c mice (5-6 weeks old) were purchased from Charles River Laboratories (Hollister, Calif.). Severe combined immune deficient (SCID, B6.CB17-PrkdcSCID/SzJ) and Pmel-1 TCR transgenic (B6.Cg-Thyla/Cy Tg(TcraTcrb)8Rest/J) mice (5-6 weeks old) were purchased from The Jackson Laboratory (Bar Harbor, Me.). All mice were housed and treated in accordance with Institutional Animal Care and Use Committee guidelines. For the 4T1 tumor model, 1×10^5 cells were injected orthotopically into the mammary fat pad; for all other tumor models, 1×10^6 cells were injected subcutaneously (s.c.) in the right flank. […] Control groups received vehicle (water) twice daily by gavage. Tumor volume measured by digital caliper (length×width×width/2) and body weight were recorded three times weekly. Animals were euthanized when tumors necrotized or volumes reached 2000 mm^3. Anti-PD-L1 antibody (5 mg/kg, clone 10F.9G2, BioXCell, West Lebanon, N.H.) was injected intraperitoneally (i.p.) on days 5, 7, 9, 11, 13, and 15 for the CT26 model. Gemcitabine (Selleckchem, Houston, Tex.) was dosed 50 mg/kg i.p. on days 10 and 16 for the CT26 model or 60 mg/kg i.p. on days 6 and 10 for the LLC model. For CD8^+ cell depletion, mice were injected i.p. with anti-CD8 antibody (25 mg/kg, clone 2.43, BioXCell) on days −1, 0, +5, and +10. For NK cell depletion, mice were injected i.p. with anti-NK1.1 antibody (25 mg/kg, clone PK136, BioXCell) in the LLC and B16 models or with anti-Asialo GM1 sera (20 μL, Wako Chemicals, Richmond, Va.) in the CT26 model, per the same schedule as anti-CD8.
Tumor dissociation and flow cytometry. […] All tumor flow experiments were acquired on an Attune N×T flow cytometer and analyzed with FlowJo software version 10 (Ashland, Oreg.), using fluorescence-minus-one controls for gating and single-stained OneComp eBeads (eBioscience) to set compensation matrices.

`C[C@H](N)C(=O)N1C[C@H](CCCB(O)O)[C@](N)(C(=O)O)C1` [arginase inhibitor] was tested, and the “Tumor growth in Arg flox/flox; Tie2-Cre+ (ARG1 ΔM) animals” value [1] was “no further reduction in tumor growth”, the “Growth inhibition of CT26 cell line” value [2] was “No growth inhibition” and the “Inhibition of endothelial NOS” value [3] was “No inhibition”. For the same molecule, the “Inhibition of neuronal NOS” value [4] was “No inhibition”, the “Growth inhibition of B16 cell line” value [5] was “No growth inhibition” and the “Inhibition of inducible NOS” value [6] was “No inhibition”. The “Lung metastases, combination with NK cells” value [7] was “significantly fewer lung metastases”, the “Arginine depletion of the media” value ([8]; G-MDSC of a lung cancer patient) was “arginine depletion was blocked” and the “T cell proliferation restored, of control levels” value ([8]; media conditioned by G-MDSC of a lung cancer patient) was 99%. The “Tumor growth, single agent” value ([9]; 100 mg/kg BID PO) was “significantly inhibited the growth”, the “Tumor-infiltrating activated CD25+ CD8+ cytotoxic T cells vs vehicle” value ([9]; 100 mg/kg BID, study day 9, flow cytometry) was “increase” and the “Efficacy after depletion of either CD8+ cells or NK cells” value ([9]; 100 mg/kg twice daily, depleting antibodies) was “blocked the efficacy”.
